From ChEMBL document CHEMBL5579794, “Improved synthesis and evaluation of preclinical pharmacodynamic parameters of a new monocyclic β-lactam DPI-2016” (Bioorg Med Chem Lett, 2024)

What was measured:
[1] = test system: Pseudomonas aeruginosa; assay: Antibacterial activity against Pseudomonas aeruginosa infected in BalbC mouse model of Septicaemia infection assessed as survival rate at 128 mg/kg administration starting at 0.5 to 2 hrs post infection and measured after 2 days relative to control; assay type: functional; conditions: 48 h, time 2 day
[2] = test system: Pseudomonas aeruginosa; assay: Antibacterial activity against Pseudomonas aeruginosa infected in BalbC mouse model of Septicaemia infection assessed as survival rate at 64 mg/kg administration starting at 0.5 to 2 hrs post infection and measured after 7 days relative to control; assay type: functional; conditions: 168 h, time 7 day
[3] = test system: Pseudomonas aeruginosa; assay: Antibacterial activity against Pseudomonas aeruginosa infected in BalbC mouse model of Septicaemia infection assessed as survival rate at 64 mg/kg administration starting at 0.5 to 2 hrs post infection and measured after 4 days relative to control; assay type: functional; conditions: 96 h, time 4 day
[4] = test system: Pseudomonas aeruginosa; assay: Antibacterial activity against Pseudomonas aeruginosa infected in BalbC mouse model of Septicaemia infection assessed as survival rate at 64 mg/kg administration starting at 0.5 to 2 hrs post infection and measured after 6 days relative to control; assay type: functional; conditions: 144 h, time 6 day
[5] = test system: Pseudomonas aeruginosa; assay: Antibacterial activity against Pseudomonas aeruginosa infected in BalbC mouse model of Septicaemia infection assessed as survival rate at 64 mg/kg administration starting at 0.5 to 2 hrs post infection and measured after 2 days relative to control; assay type: functional; conditions: 48 h, time 2 day
[6] = test system: Pseudomonas aeruginosa; assay: Antibacterial activity against Pseudomonas aeruginosa infected in BalbC mouse model of Septicaemia infection assessed as survival rate at 128 mg/kg administration starting at 0.5 to 2 hrs post infection and measured after 7 days relative to control; assay type: functional; conditions: 168 h, time 7 day
[7] = test system: Pseudomonas aeruginosa; assay: Antibacterial activity against Pseudomonas aeruginosa infected in BalbC mouse model of Septicaemia infection assessed as survival rate at 128 mg/kg administration starting at 0.5 to 2 hrs post infection and measured after 6 days relative to control; assay type: functional; conditions: 144 h, time 6 day
[8] = test system: Pseudomonas aeruginosa; assay: Antibacterial activity against Pseudomonas aeruginosa infected in BalbC mouse model of Septicaemia infection assessed as survival rate at 128 mg/kg administration starting at 0.5 to 2 hrs post infection and measured after 1 day relative to control; assay type: functional; conditions: 24 h
[9] = test system: Pseudomonas aeruginosa; assay: Antibacterial activity against Pseudomonas aeruginosa infected in BalbC mouse model of Septicaemia infection assessed as survival rate at 128 mg/kg administration starting at 0.5 to 2 hrs post infection and measured after 4 days relative to control; assay type: functional; conditions: 96 h, time 4 day
[10] = test system: Pseudomonas aeruginosa; assay: Antibacterial activity against Pseudomonas aeruginosa infected in BalbC mouse model of Septicaemia infection assessed as survival rate at 64 mg/kg administration starting at 0.5 to 2 hrs post infection and measured after 5 days relative to control; assay type: functional; conditions: 120 h, time 5 day
[11] = test system: Pseudomonas aeruginosa; assay: Antibacterial activity against Pseudomonas aeruginosa infected in BalbC mouse model of Septicaemia infection assessed as survival rate at 128 mg/kg administration starting at 0.5 to 2 hrs post infection and measured after 5 days relative to control; assay type: functional; conditions: 120 h, time 5 day
[12] = test system: Pseudomonas aeruginosa; assay: Antibacterial activity against Pseudomonas aeruginosa infected in BalbC mouse model of Septicaemia infection assessed as survival rate at 128 mg/kg administration starting at 0.5 to 2 hrs post infection and measured after 3 days relative to control; assay type: functional; conditions: 72 h, time 3 day
[13] = test system: Pseudomonas aeruginosa; assay: Antibacterial activity against Pseudomonas aeruginosa infected in BalbC mouse model of Septicaemia infection assessed as survival rate at 64 mg/kg administration starting at 0.5 to 2 hrs post infection and measured after 1 day relative to control; assay type: functional; conditions: 24 h
[14] = test system: THP-1; assay: Cytotoxicity against human THP-1 cells at upto 300 ug/ml relative to control; assay type: toxicity, cell-based; conditions: up to 300 µg/mL
[15] = Volume of distribution in male Sprague-Dawley rat at 2 mg/kg by LC-MS/MS analysis; assay type: ADME, organism-based; conditions: in vivo
[16] = test system: Pseudomonas aeruginosa; assay: Antibacterial activity against Pseudomonas aeruginosa infected in BalbC mouse model of Septicaemia infection assessed as survival rate at 4 mg/kg administered 30 mins post infection and measured after 7 days relative to control; assay type: functional; conditions: 168 h, time 7 day
[17] = Plasma protein binding in mouse at 1 uM incubated for 6 hrs by LC-MS/MS analysis; assay type: ADME, cell-free; conditions: read-out: PPB (converted)
[18] = test system: Pseudomonas aeruginosa; assay: Antibacterial activity against Pseudomonas aeruginosa infected in BalbC mouse model of Septicaemia infection assessed as survival rate at 4 mg/kg administered 30 mins post infection and measured after 5 days relative to control; assay type: functional; conditions: 120 h, time 5 day
[19] = Clearance in male Sprague-Dawley rat at 2 mg/kg by LC-MS/MS analysis; assay type: ADME, organism-based; conditions: in vivo
[20] = test system: NRK-52E; assay: Cytotoxicity against rat NRK-52E cells at upto 300 ug/ml relative to control; assay type: toxicity, cell-based; conditions: up to 300 µg/mL
[21] = test system: HepG2; assay: Cytotoxicity against human HepG2 cells at upto 300 ug/ml relative to control; assay type: toxicity, cell-based; conditions: up to 300 µg/mL
[22] = test system: Pseudomonas aeruginosa; assay: Antibacterial activity against Pseudomonas aeruginosa infected in BalbC mouse model of Septicaemia infection assessed as survival rate at 8 mg/kg administered 30 mins post infection and measured after 7 days relative to control; assay type: functional; conditions: 168 h, time 7 day
[23] = test system: Pseudomonas aeruginosa; assay: Antibacterial activity against Pseudomonas aeruginosa infected in BalbC mouse model of Septicaemia infection assessed as survival rate at 8 mg/kg administered 30 mins post infection and measured after 1 day relative to control; assay type: functional; conditions: 24 h
[24] = test system: J774.A1; assay: Cytotoxicity against mouse J774.A1 cells at upto 300 ug/ml relative to control; assay type: toxicity, cell-based; conditions: up to 300 µg/mL
[25] = Stability in human plasma at 1 uM measured upto 120 mins by LC-MS/MS analysis; assay type: ADME, cell-free; conditions: 2 h
[26] = test system: Pseudomonas aeruginosa; assay: Antibacterial activity against Pseudomonas aeruginosa infected in BalbC mouse model of Septicaemia infection assessed as survival rate at 8 mg/kg administered 30 mins post infection and measured after 4 days relative to control; assay type: functional; conditions: 96 h, time 4 day
[27] = test system: Pseudomonas aeruginosa; assay: Antibacterial activity against Pseudomonas aeruginosa infected in BalbC mouse model of Septicaemia infection assessed as survival rate at 4 mg/kg administered 30 mins post infection and measured after 2 days relative to control; assay type: functional; conditions: 48 h, time 2 day
[28] = test system: Pseudomonas aeruginosa; assay: Antibacterial activity against Pseudomonas aeruginosa infected in BalbC mouse model of Septicaemia infection assessed as survival rate at 4 mg/kg administered 30 mins post infection and measured after 3 days relative to control; assay type: functional; conditions: 72 h, time 3 day
[29] = test system: Pseudomonas aeruginosa; assay: Antibacterial activity against Pseudomonas aeruginosa infected in BalbC mouse model of Septicaemia infection assessed as survival rate at 4 mg/kg administered 30 mins post infection and measured after 1 day relative to control; assay type: functional; conditions: 24 h
[30] = test system: Pseudomonas aeruginosa; assay: Antibacterial activity against Pseudomonas aeruginosa infected in BalbC mouse model of Septicaemia infection assessed as survival rate at 4 mg/kg administered 30 mins post infection and measured after 4 days relative to control; assay type: functional; conditions: 96 h, time 4 day
[31] = test system: H9; assay: Cytotoxicity against human H9 cells at upto 300 ug/ml relative to control; assay type: toxicity, cell-based; conditions: up to 300 µg/mL
[32] = Half life in male Sprague-Dawley rat at 2 mg/kg by LC-MS/MS analysis; assay type: ADME, organism-based; conditions: in vivo
[33] = test system: Pseudomonas aeruginosa; assay: Antibacterial activity against Pseudomonas aeruginosa infected in BalbC mouse model of Septicaemia infection assessed as survival rate at 8 mg/kg administered 30 mins post infection and measured after 3 days relative to control; assay type: functional; conditions: 72 h, time 3 day
[34] = test system: H9c2; assay: Cytotoxicity against rat H9c2 cells at upto 300 ug/ml relative to control; assay type: toxicity, cell-based; conditions: up to 300 µg/mL
[35] = test system: Pseudomonas aeruginosa; assay: Antibacterial activity against Pseudomonas aeruginosa infected in BalbC mouse model of Septicaemia infection assessed as survival rate at 8 mg/kg administered 30 mins post infection and measured after 6 days relative to control; assay type: functional; conditions: 144 h, time 6 day
[36] = test system: Pseudomonas aeruginosa; assay: Antibacterial activity against Pseudomonas aeruginosa infected in BalbC mouse model of Septicaemia infection assessed as survival rate at 4 mg/kg administered 30 mins post infection and measured after 6 days relative to control; assay type: functional; conditions: 144 h, time 6 day

With `C[C@H]1[C@H](NC(=O)/C(=N\OC(C)(C)C(=O)O)c2csc(N)n2)C(=O)N1S(=O)(=O)O` [AZTREONAM] the survival at 128 mg/kg [1] was 90%, the survival at 64 mg/kg [2] was 60% and the survival at 64 mg/kg [3] was 60%. It also gave a survival at 64 mg/kg [4] of 60%, a survival at 64 mg/kg [5] of 60% and a survival at 128 mg/kg [6] of 90%. For the same compound, the survival at 128 mg/kg [7] was 90%, the survival at 128 mg/kg [8] was 100% and the survival at 128 mg/kg [9] was 90%. For the same compound, the survival at 64 mg/kg [10] was 60%, the survival at 128 mg/kg [11] was 90% and the survival at 128 mg/kg [12] was 90%. For the same compound, the survival at 64 mg/kg [13] was 100%.
For `Cc1sc(N)nc1/C(=N/O[C@@H](COc1ccc(C(=N)N[C@@H]2CCNC2)cc1)C(=O)O)C(=O)N[C@@H]1C(=O)N(OS(=O)(=O)O)C1(C)C`, the Activity [14] was > 80%, the Vd [15] was 0.37 L/kg and the survival at 4 mg/kg [16] was 30%. It also gave a fraction unbound at 6 h, 1 µM [17] of 0.532, a survival at 4 mg/kg [18] of 30% and a clearance [19] of 12.5 mL/min/kg. For the same compound, the Activity [20] was > 80%, the Activity [21] was > 80% and the survival at 8 mg/kg [22] was 60%. For the same compound, the survival at 8 mg/kg [23] was 100%, the Activity [24] was > 80% and the Stability [25] was “Stable”. The survival at 8 mg/kg [26] was 60%, the survival at 4 mg/kg [27] was 60% and the survival at 4 mg/kg [28] was 30%. For the same compound, the survival at 4 mg/kg [29] was 60%, the survival at 4 mg/kg [30] was 30% and the Activity [31] was > 80%. The half-life [32] was 24 min, the survival at 8 mg/kg [33] was 60% and the Activity [34] was > 80%. For the same compound, the survival at 8 mg/kg [35] was 60% and the survival at 4 mg/kg [36] was 30%.
